Laboratory results as given in patent US20240287054A1, “COMPOUNDS THAT BIND NON-CANONICAL G-QUADRUPLEX STRUCTURES AND METHODS OF MAKING AND USING THE SAME” (The U.S.A., as Represented by the Secretary, Department of …, priority 2021, published 2024).

What was measured:
[1] = target: MYCN G4 DNA (2-AP at A11); assay: 2-Aminopurine (2-AP) fluorescence titration, A11-labeled MYCN G4; assay type: binding, human; conditions: 2-AP at A11 of MYCN G4
Protocol: 2-Aminopurine (2-AP) fluorescence titration. Fluorescence titrations based on 2-aminopurine labeling were performed using the protocol reported previously. Briefly, MYCN G4 oligonucleotide with a 2-AP substitution at either A11 or A18 position was annealed by heating the sample to 95° C. for 5 min and cooling down to RT slowly. The oligonucleotide with folded structure was diluted to 10 μM in Tris buffer (10 mM Tris, pH7.0, 100 mM KCl, 0.005% Tween 20) and prepared in a black 96-well plate (Costar) in triplicate as designed. Small molecules were diluted in DMSO to obtain a series of solutions with concentrations ranging from 0.1 to 5 mM, and then diluted by 20 times added into the plate (5% DMSO final concentration). The final concentration of 2-AP DNA was 1 μM in the well plate. To obtain the background fluorescence, small molecule solutions without DNA were also prepared in the same plate. After incubation for 30 min at RT, the plate was briefly centrifuged and scanned in Synergy Mx microplate reader (BioTek) with Ex 310 nm/Em 365 nm. Fluorescence signals were calculated by averaging the intensities in triplicate wells after subtracting the references. Finally, the binding signals were normalized and the KD value was determined by fitting the curve using a nonlinear sigmoidal dose-response model with a variable slope in GraphPad Prism 8.3.1 software.

[2] = tested on: NBEB cells; assay: MTS cell survival assay; assay type: cell-based; conditions: up to 45 μM
Protocol: To examine the effects of G4-binding compounds on NBEB cells, live-cell imaging was performed using an Incucyte interface (described below). NBEB (5K/well), cells were seeded into 96-well plates in triplicate, treated with compound MY-8 at various concentrations (0-45 μM), and cultured until control wells reached confluence. For RT-qPCR and western blotting, NBEB (300K) cells were treated with MY-8 in 6-well dish for 48 h. To examine the time-dependent decrease in MYCNOs expression, cells were treated with 22.5 μM and 45 μM MY-8 and analyzed at various times (0, 4, 24, 48, 72 and 96 h). To validate cell viability, a Trypan Blue exclusion test was performed following treatment at 48 h and 96 h post treatment and the proportion of live versus dead cells was calculated using a hemocytometer.
Cell survival. Following live cell image analysis, a 3-(4, 5-dimethylthiazol-2-yl)-5-(3-carboxymethoxyphenyl)-2-(4-sulfophenyl)-2H-tetrazolium inner salt assay was performed to examine cell survival. (MTS; inner salt assay; Promega, America). Absorbance was measured with a microplate reader (BIO-RAD, America) at 490 nm wavelength. To calculate the proportion of viable cells, MY-8 treated cells were divided by the control samples from each group.

[3] = target: MYCN hairpin-G4 DNA; assay: FIA using compound fluorescence (Ex 340/Em 500 nm), titration with unlabeled MYCN G4 DNA; assay type: binding, human; conditions: 100 nM compound titrated with folded unlabeled MYCN G4
Outline: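 Compound at 100 nM final (5% DMSO) was titrated with serially diluted, pre-annealed unlabeled MYCN G4 DNA and incubated 30 min at room temperature. Intrinsic compound fluorescence (Ex 340/Em 500 nm) was normalised, and affinity was fitted to a one-site total model.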

[4] = tested on: 12 different G4 oligos as well as non-G4 oligos (dsDNA and ssDNA); assay: Small-scale DNA G4 microarray binding selectivity; conditions: B33 at 2.5 μM
Protocol: In this example, a small-scale DNA G4 microarray containing 12 different G4 oligos as well as non-G4 oligos (dsDNA and ssDNA) was fabricated and tested (Table 4). To start with, a SA-coated glass surface was prepared. An amino-functionalized glass slide was firstly modified with a solution of N, N′-disuccinimidyl carbonate (DSC, 1.0 M) and N, N-diisopropylethylamine (DIPEA, 1.0 M) in DMF overnight at room temperature. After being washed successively with EtOH, Milli-Q water (5 min each) and dried with N2 gas, the slide was incubated with 1 mg/mL of SA solution for 12 h (overnight) in a 4° C. fridge, followed by blocking the surface with EA buffer for 30 minutes. Then, the slide was rinsed with PBS buffer and Milli-Q water, and dried b centrifugation (1,700 g, 2 min).
In parallel, biotin-labeled DNA/RNA oligos were prepared in annealing buffer resulting in 5 μM stock solutions, followed by annealing (according to above methods). Then all the oligo solutions were transferred into a 384-well plate. Next, the microarray printing was conducted by a robotic arrayer (Nanoprint, Arrayit, USA) with a humidity of 60%. After the microarray was fabricated, the slide was placed in a slide box with a piece of wet Kimwipe tissue and incubated at 4° C. for 2 h.
To incubate with the fluorescent compounds (compound B33, thiazole orange (“TO”), and amsacrine), the slide was thoroughly rinsed with PBST, PBS, and water to remove the unbounded oligos. Then, the slide was dried by centrifugation (1,700 g, 2 min) and quickly assembled with microarray gaskets (Agilent, USA), followed by loading the compound solutions. After 1 h incubation, the slide was washed and dried with the above-mentioned method. Finally, the microarray slide was imaged by a fluorescence scanner (Mapix) using green channel and the fluorescence intensities were quantified.

[5] = tested on: MANGO II RNA G4; assay: SPR binding to MANGO II RNA G4; conditions: duplex-containing RNA G4
[6] = target: PIM1-form1 HP-G4; assay: FIA binding test with PIM1-form1 HP-G4 ((3+1) hybrid structure)
Protocol: (§1) In this study, FIA was used for validating the bindings between certain bivalent and MYCN G4 oligos. To measure the binding affinity, a solution of each compound was prepared in triplicate in a 96 well-plate (Costar, black side clear bottom), resulting in a final concentration of 100 nM (5% final DMSO in the working solution). Unlabeled MYCN G4 DNA was folded based on the above-mentioned annealing method, then added into the well plate resulting in different concentrations by a seral dilution. The plate was incubated at room temperature for 30 min, followed by centrifuging at 500 rpm for 2 minutes. The fluorescence intensity was then quantitatively recorded by a Synergy Mx microplate reader (BioTek) at Ex 340 nm/Em 500 nm. The fluorescence intensities were then normalized, and the binding affinity was calculated by fitting the curve using one-site total model in GraphPad Prism 8.3.1 software.
(§2) In addition to the DMS-footprinting study, the bivalent binding mode of compound B33 toward MYCN hairpin-G4 was also investigated by comparing HP-G4s with different folding types. Four reported HP-G4s with parallel structure (BCL2), (3+1) hybrid structure (HIV and PIM1-form1), and (2+2) chair-type structure (PIM1-form2) were examined by FIA binding test using compound B33 (FIGS. 41A, 41B, 42A, 42B, 43A, 43B, 44A, and 44B). […]

[7] = target: PIM1-form2 HP-G4; assay: FIA binding test with PIM1-form2 HP-G4 ((2+2) chair-type structure); conditions: read-out: binding affinity, PIM1-form2 HP-G4
Protocol: as §1, §2

A11 2AP KD [1] | Kd [1] | SMILES | CC50 [2] | Kd [3] | binding to dsDNA/ssDNA in microarray [4] | binding to hairpin containing G4 DNAs hTERT and BCL2 in microarray [4] | binding pattern in G4 microarray ([4]; fluorescent compound incubated 1 h) | binding to MANGO II RNA G4 by SPR [5] | Kd [6] | Kd [7]
sub-micromolar binders | 0.6 ± 0.2 µM | COc1ccc(-c2noc(-c3ccc(NCCCN4CCCCCC4)nn3)n2)cc1 [MY-8, N-(3-(azepan-1-yl)propyl)-6-(3-(4-methoxyphenyl)-1,2,4-oxadiazol-5-yl)pyridazin-3-amine] | 20.5 µM |  |  |  |  |  |  | 
 |  | COc1ccc(-c2noc(-c3ccc(NCCCNc4c5ccc(Cl)cc5nc5ccc(OC)cc45)nn3)n2)cc1 [B33, N^1-(6-chloro-2-methoxyacridin-9-yl)-N^3-(6-(3-(4-methoxyphenyl)-1,2,4-oxadiazol-5-yl)pyridazin-3-yl)propane-1,3-diamine] |  | 0.066 ± 0.007 µM | no binding to dsDNA/ssDNA was observed | didn't show fluorescence | only MYCN spots lighted up | weak binding | 0.279 ± 0.032 µM | 1.1 ± 0.4 µM
 | 3.2 ± 0.6 µM | COc1ccc(-c2noc(-c3ccc(NCCCN4CCCC4)nn3)n2)cc1 [MY-1, 6-(3-(4-methoxyphenyl)-1,2,4-oxadiazol-5-yl)-N-(3-(pyrrolidin-1-yl)propyl)pyridazin-3-amine] |  |  |  |  |  |  |  | 
